# Reference: patent US20200385371A1 (Propellon Therapeutics Inc., priority 2017, published 2020)
# Read-outs that look alike come from different tables or passages of the source.
# Tests used:
# WDR5 [1] = target: T1, WDR5 (Homo sapiens, UniProt P61964); assay: Surface Plasmon Resonance (SPR) assay; assay type: binding; parameters: Full length WDR5 with an N-terminal His tag and C-terminal AviTag; His tag (N); made in house; host or cells: E. coli
# Procedure, shortened: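 Full-length biotinylated WDR5 (N-His, C-AviTag, E. coli) captured (~3000 RU) on streptavidin SA chip; Biacore T200. HBS-EP pH 7.4 plus 5% DMSO running buffer, 40 μl/min.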
# MLL1-WRAD2 complex = target: T2, MLL1-WRAD2 complex (Homo sapiens, UniProt P61964); assay: MLL1-WRAD2 enzyme assay (HMT); assay type: biochemical
# T2 construct: His tag (N); made in house; host or cells: E. coli
# Protocol: Specifically, recombinant human MLL1 (aa 3745-3969, GenBank Accession No. NM_005933), WDR5 (aa 22-334, GenBank Accession No. NM_017588), RbBP5 (aa 1-538, GenBank Accession No. NM_005057), Ash2L (aa 2-534, GenBank Accession No. NM_001105214), and DPY-30 (aa 1-99, GenBank Accession No. NM_0325742), all with N-terminal His tag, are expressed in E. coli and mixed at a molar ratio of 1:1:1:1:2. 10 nM of the assembled MLL1-WRAD2 complex is mixed with 100 nM WRAD2 to enhance complex formation before incubation with 0.05 mg/ml nucleosome substrate and compounds (as 10 point duplicate dose response titrations) for 15 min in a buffer consisting of 50 mM Tris (pH 8.5), 5 mM MgCl2, 50 mM NaCl, 1 mM DTT, 0.01% Brij-35, and 1% DMSO. Reaction is initiated with 1 μM 3H-SAM and incubated for 1 hour at 30° C. Reaction mixture is transferred to P81 filter-paper and washed with PBS before detection.
# MV4-11 cells = assay: Cell proliferation assay (ATPlite); assay type: cell-based; conditions: Homo sapiens; for IC50: MV4-11, Table 2; for EC50: 120 h, MV4-11 cells, five days, read-out: GI MV411 EC50
# Procedure, shortened: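 ATPlite luminescence after five days' culture (37° C, 5% CO2) gives viability. Compounds dosed in 10 concentrations up to 10 μM against DMSO; 1,000 cells/well seeded in Alpha-MEM/10% FBS.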
# WDR5 [2] = target: T1, WDR5; assay: Fluorescence Polarization (FP) binding assay
# Procedure, shortened: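 Buffer was pH 6.5 sodium phosphate (80 mM) with 20 mM KCl and 0.008% Triton X-100; 9-Ala-FAM probe at 20 nM used 0.05 μM WDR5 and 480/540 nm polarization, H3 (1-15) probe at 30 nM used 0.3 μM WDR5 and 485/528 nm. Quadruplicate data were hyperbola-fitted to give Kdisp.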
# [3] = Table 2, effect of difluoro substitution, read-out: KD (SPR)
Structure (SMILES),Kd (WDR5 [1]; [3]) [nM],IC50 (MLL1-WRAD2 complex; Table 2) [nM],IC50 (MV4-11 cells) [nM],"IC50 (MLL1-WRAD2 complex; Table 2, no unit printed in the cell) [nM]",Kd (WDR5 [1]; read-out: SPR Kd) [nM],IC50 (WDR5 [2]) [nM],EC50 (MV4-11 cells) [nM]
C[C@@H]1CN(c2ccc(-c3cnc(N4CCOCC4)nc3)c(F)c2NC(=O)c2c[nH]c(=O)cc2C(F)(F)F)C[C@H](C)N1C [reference compound],1.1,154,–,–,–,–,–
C[C@@H]1CN(c2ncc(-c3cc(NC(=O)c4c[nH]c(=O)cc4C(F)(F)F)c(N4C[C@@H](C)N(C)[C@@H](C)C4)cc3F)cn2)C[C@H](C)O1 [reference compound],0.4,–,–,150,–,–,–
"C[C@H]1CN(c2cc(F)c(C3=CCN(C(=O)OC4(C)CCC4)CC3)c(F)c2NC(=O)c2c[nH]c(=O)cc2C(F)(F)F)CCN1C [Example 93, 1-Methylcyclobutyl(S)-4-(4-(3,4-dimethylpiperazin-1-yl)-2,6-difluoro-3-(6-oxo-4-(trifluoromethyl)-1,6-dihydropyridine-3-carboxamido)phenyl)-3,6-dihydropyridine-1(2H)-carboxylate]",–,–,–,–,2.15,15.4,19.4
"C[C@@H]1CN(c2cc(F)c(C3=CCN(c4ncc(C#N)s4)C3)c(F)c2NC(=O)c2c[nH]c(=O)cc2C(F)(F)F)C[C@H](C)N1C [Example 150, N-(3-(1-(5-cyanothiazol-2-yl)-2,5-dihydro-1H-pyrrol-3-yl)-2,4-difluoro-6-((3S,5R)-3,4,5-trimethylpiperazin-1-yl)phenyl)-6-oxo-4-(trifluoromethyl)-1,6-dihydropyridine-3-carboxamide]",–,–,–,–,0.53,12.9,48.4
"C[C@H]1CN(c2cc(F)c(-c3ccc4c(c3)OCO4)c(F)c2NC(=O)c2c[nH]c(=O)cc2C(F)(F)F)CCN1C [Example 184, (S)—N-(3-(benzo[d][1,3]dioxol-5-yl)-6-(3,4-dimethylpiperazin-1-yl)-2,4-difluorophenyl)-6-oxo-4-(trifluoromethyl)-1,6-dihydropyridine-3-carboxamide]",–,–,–,–,1.17,25.5,90.3
"C[C@@H]1CN(c2cc(F)c(C3=CCN(c4ccnc(C#N)n4)CC3)c(F)c2NC(=O)c2c[nH]c(=O)cc2C(F)(F)F)C[C@H](C)N1C [Example 152, N-(3-(1-(2-cyanopyrimidin-4-yl)-1,2,3,6-tetrahydropyridin-4-yl)-2,4-difluoro-6-((3S,5R)-3,4,5-trimethylpiperazin-1-yl)phenyl)-6-oxo-4-(trifluoromethyl)-1,6-dihydropyridine-3-carboxamide]",–,–,–,–,0.68,15.3,24
"C[C@H]1CN(c2cc(F)c(-c3cnc(N4C[C@H]5CC[C@@H](C4)O5)nc3)c(F)c2NC(=O)c2c[nH]c(=O)cc2C(F)(F)F)CCN1C [Example 89, N-(3-(2-((1R,5S)-8-oxa-3-azabicyclo[3.2.1]octan-3-yl)pyrimidin-5-yl)-6-((S)-3,4-dimethylpiperazin-1-yl)-2,4-difluorophenyl)-6-oxo-4-(trifluoromethyl)-1,6-dihydropyridine-3-carboxamide]",–,–,–,–,0.83,12.5,30.8

# Other lines, results leading:
Kd (WDR5 [1]; [3]) [nM],IC50 (MLL1-WRAD2 complex; Table 2) [nM],IC50 (MV4-11 cells) [nM],"IC50 (MLL1-WRAD2 complex; Table 2, no unit printed in the cell) [nM]",Kd (WDR5 [1]; read-out: SPR Kd) [nM],IC50 (WDR5 [2]) [nM],EC50 (MV4-11 cells) [nM],Structure (SMILES)
1.8,41,31,–,–,–,–,"C[C@@H]1CN(c2ncc(-c3c(F)cc(N4C[C@@H](C)N(C)[C@@H](C)C4)c(NC(=O)c4c[nH]c(=O)cc4C(F)(F)F)c3F)cn2)C[C@H](C)O1 [drawing 478, reference compound]"
3.7,63,30,–,–,–,–,"C[C@@H]1CN(c2cc(F)c(-c3cnc(N4CCOCC4)nc3)c(F)c2NC(=O)c2c[nH]c(=O)cc2C(F)(F)F)C[C@H](C)N1C [drawing 479, reference compound]"
–,–,–,–,1.07,10.7,40.8,"C[C@@H]1CN(c2ccc(-c3c(F)cc(N4C[C@@H](C)N(C)[C@@H](C)C4)c(NC(=O)c4c[nH]c(=O)cc4C(F)F)c3F)cn2)C[C@H](C)O1 [Example 191, 4-(Difluoromethyl)-N-(3-(6-((2S,6R)-2,6-dimethylmorpholino)pyridin-3-yl)-2,4-difluoro-6-((3S,5R)-3,4,5-trimethylpiperazin-1-yl)phenyl)-6-oxo-1,6-dihydropyridine-3-carboxamide]"
–,–,–,–,2.57,17,75.1,"COc1cnc(N2CC=C(c3c(F)cc(N4C[C@@H](C)N(C)[C@@H](C)C4)c(NC(=O)c4c[nH]c(=O)cc4C(F)(F)F)c3F)CC2)nc1 [Example 137, N-(2,4-difluoro-3-(1-(5-methoxypyrimidin-2-yl)-1,2,3,6-tetrahydropyridin-4-yl)-6-((3S,5R)-3,4,5-trimethylpiperazin-1-yl)phenyl)-6-oxo-4-(trifluoromethyl)-1,6-dihydropyridine-3-carboxamide]"
–,–,–,–,0.89,15,29.9,"C[C@@H]1CN(c2cc(F)c(-c3cnc(N4C[C@H]5CC[C@@H](C4)O5)nc3)c(F)c2NC(=O)c2c[nH]c(=O)cc2C(F)(F)F)C[C@H](C)N1C [Example 90, N-(3-(2-((R,5S)-8-oxa-3-azabicyclo[3.2.1]octan-3-yl)pyrimidin-5-yl)-2,4-difluoro-6-((3S,5R)-3,4,5-trimethylpiperazin-1-yl)phenyl)-6-oxo-4-(trifluoromethyl)-1,6-dihydropyridine-3-carboxamide]"
–,–,–,–,0.69,12.8,5.85,"C[C@@H]1CN(c2ncc(-c3c(F)cc(N4C[C@@H](C)N(C)[C@@H](C)C4)c(NC(=O)c4c[nH]c(=O)cc4C(F)(F)F)c3F)cn2)CCO1 [Example 128, N-(2,4-difluoro-3-(2-((R)-2-methylmorpholino)pyrimidin-5-yl)-6-((3S,5R)-3,4,5-trimethylpiperazin-1-yl)phenyl)-6-oxo-4-(trifluoromethyl)-1,6-dihydropyridine-3-carboxamide]"
–,–,–,–,0.97,16.4,70.1,"C[C@@H]1CN(c2cc(F)c(-c3ccc(N4CCO[C@@H](C)C4)nc3)c(F)c2NC(=O)c2c[nH]c(=O)cc2C(F)(F)F)C[C@H](C)N1C [Example 192, N-(2,4-difluoro-3-(6-((S)-2-methylmorpholino)pyridin-3-yl)-6-((3S,5R)-3,4,5-trimethylpiperazin-1-yl)phenyl)-6-oxo-4-(trifluoromethyl)-1,6-dihydropyridine-3-carboxamide]"
